This note sets out measurements from US20230242558A1, “NICOTINATE AND NICOTINAMIDE RIBOSIDE-BASED COMPOUNDS AND DERIVATIVES THEREOF” (New Frontier Bio, Inc., priority 2022, published 2023).

The test system of the assay is HaCaT cells. Put plainly: NAD assay in HaCaT cells, total NAD level normalized to protein. To be noted: 4 hours incubation, concentration not given. Format: cell-based. As for the experimental part:
The biological activity of certain compounds disclosed herein was determined using the following method: • 1. Plate HaCaT cells in 12-well tissue culture plates at a density of 200,000 cells per well in 0.75 mL DMEM growth medium. Incubate overnight at 37° C. in a incubator at 5% CO2. • 2. Next day, prepare dilutions of each compound in growth medium at the desired final concentration. • 3. Incubate cells as above for 4 hours. • 4. After the incubation, wash cell monolayers in each well with 200 uL PBS and add 200 uL 0.25% Trypsin. Let cells lift for 15 minutes. • 5. Once cells are lifted, collect cells into sterile 1.5 mL Eppendorf tube containing 400 uL of DMEM w/2% HI FBS. • 6. Centrifuge tubes for 500×g for 5 min. • 7. Aspirate supernatant and wash cells with 200 uL of cold PBS. • 8. Centrifuge tubes for 500×g for 5 min. • 9. Aspirate supernatant and add 400 μL of cold extraction buffer (provided in the NAD assay kit) and vortex each tube for 10 seconds. • 10. Centrifuge samples at 13,000×g for 10 min to remove insoluble material. • 11. Use a small aliquot of extract to determine total protein concentration by BCA protein assay kit. • 12. Deproteinize samples by filtering them through a 10 kDa cut-off spin filter. Centrifuge at 13,000×g for 10 min. • 13. After cell lysate is filtered, load 25 uL of samples to 96 well plate for NAD assay. • 14. Add 25 uL of extraction buffer to each well with samples to dilute them 1:2. Add 50 uL of standards to appropriate wells. • 15. Set up master reaction mix of cycling buffer and NAD cycling enzyme mix. Add 100 uL of mix to each well and incubate for […]. • 16. Add 10 uL of developer into each well. • 17. Let plate incubate at room temperature for 1 hr. • 18. Stop the reaction by adding 10 uL of stop solution into each well and mix well. • 19. Measure absorbance at 450 nm using plate reader. • 20. Plot standard curve and normalize data to determine total NAD level.
Take `CC(C)Cc1ccc(C(C)C(=O)NCCNC(=O)c2cccnc2)cc1` (stereo not drawn): the “NAD+ level” value is 697 pmol/mg protein.

For the compound `O=C(NCCCCCC[P+](c1ccccc1)(c1ccccc1)c1ccccc1)c1cccnc1` [drawing 171], the “NAD+ level” value came to 217 pmol/mg protein.

`CC(C)(C)OC(=O)c1ccc[n+]([C@@H]2O[C@H](CO)[C@@H](O)[C@H]2O)c1`: the “NAD+ level” value is listed as 1162 pmol/mg protein.

Turning to `CCCCCCCCCCCCCCNC(=O)c1ccc[n+]([C@@H]2O[C@H](CO)[C@@H](O)[C@H]2O)c1`, the “NAD+ level” value was below 1 pmol/mg protein.

As to `CC(=O)OC[C@H]1O[C@@H]([n+]2cccc(C(=O)NCCCCCC[P+](c3ccccc3)(c3ccccc3)c3ccccc3)c2)[C@H](OC(C)=O)[C@@H]1OC(C)=O`, the “NAD+ level” value turned out to be 565 pmol/mg protein.

Take `CCCCCCCCCCCCCCNC(=O)c1ccc[n+]([C@@H]2O[C@H](COC(C)=O)[C@@H](OC(C)=O)[C@H]2OC(C)=O)c1`: the “NAD+ level” value is given as below 1 pmol/mg protein.

Consider `CC(=O)Oc1cc(/C=C/c2ccc(OC(=O)c3cccnc3)cc2)cc(OC(C)=O)c1`, for which the “NAD+ level” value came out at 122 pmol/mg protein.

`O=C(NCCNCCCCCCCCC[P+](c1ccccc1)(c1ccccc1)c1ccccc1)c1cccnc1`: the “NAD+ level” value is 395 pmol/mg protein.

With `CCCCCCCCCCCCCCOC(=O)c1ccc[n+]([C@@H]2O[C@H](COC(C)=O)[C@@H](OC(C)=O)[C@H]2OC(C)=O)c1`, the “NAD+ level” value is given as below 1 pmol/mg protein.

On to `O=C(OCC[P+](c1ccccc1)(c1ccccc1)c1ccccc1)c1cccnc1`, for which the “NAD+ level” value is reported as below 1 pmol/mg protein.

On to `O=C(NCCC[P+](c1ccccc1)(c1ccccc1)c1ccccc1)c1cccnc1`, for which the “NAD+ level” value turned out to be 560 pmol/mg protein.

As to `O=C(NC[P+](c1ccccc1)(c1ccccc1)c1ccccc1)c1cccnc1`, the “NAD+ level” value is 521 pmol/mg protein.

With `CC(=O)OC[C@H]1O[C@@H]([n+]2cccc(C(=O)NCc3ccccc3)c2)[C@H](OC(C)=O)[C@@H]1OC(C)=O`, the “NAD+ level” value was 399 pmol/mg protein.

In the case of `O=C(NCCNCCCCCC[P+](c1ccccc1)(c1ccccc1)c1ccccc1)c1cccnc1`, the “NAD+ level” value was found to be 378 pmol/mg protein.

For the compound `NCCNC(=O)c1cccnc1`, the “NAD+ level” value is 587 pmol/mg protein.

As for `CC(=O)OC[C@H]1O[C@@H]([n+]2cccc(C(=O)O)c2)[C@H](OC(C)=O)[C@@H]1OC(C)=O`, the “NAD+ level” value was found to be 311 pmol/mg protein.

As to `CCC(=O)OC[C@H]1O[C@@H]([n+]2cccc(C(=O)O)c2)[C@H](OC(=O)CC)[C@@H]1OC(=O)CC`, the “NAD+ level” value is 667 pmol/mg protein.

With `CC1=C(/C=C/C(C)=C/C=C/C(C)=C/C(=O)OCCOC(=O)c2cccnc2)C(C)(C)CCC1`, the “NAD+ level” value was 788 pmol/mg protein.

Turning to `CC1=C(/C=C/C(C)=C/C=C/C(C)=C/C(=O)NCCNC(=O)c2cccnc2)C(C)(C)CCC1`, the “NAD+ level” value amounted to 815 pmol/mg protein.

With `CC(=O)OCC1OC([n+]2cccc(C(=O)Oc3c(C)c(C)c4c(c3C)CC[C@@](C)(CCC[C@H](C)CCC[C@H](C)CCCC(C)C)O4)c2)C(OC(C)=O)C1OC(C)=O` (stereo partly drawn), the “NAD+ level” value came out at 301 pmol/mg protein.

Turning to `CCCCCc1cc(OC(=O)c2cccnc2)c2c(c1)OC(C)(CCC=C(C)C)C=C2` (stereo not drawn), the “NAD+ level” value was found to be 375 pmol/mg protein.

Consider `O=C(CCCCC[P+](c1ccccc1)(c1ccccc1)c1ccccc1)NCCNC(=O)c1cccnc1`, for which the “NAD+ level” value amounted to 607 pmol/mg protein.

Take `O=C(CCCC[P+](c1ccccc1)(c1ccccc1)c1ccccc1)NCCNC(=O)c1cccnc1`: the “NAD+ level” value was 495 pmol/mg protein.

With `O=C(NCc1ccccc1)c1ccc[n+]([C@@H]2O[C@H](CO)[C@@H](O)[C@H]2O)c1`, the “NAD+ level” value is reported as 274 pmol/mg protein.

For the compound `O=C(NCCCCCC[P+](c1ccccc1)(c1ccccc1)c1ccccc1)c1ccc[n+]([C@@H]2O[C@H](COP(=O)(O)O)[C@@H](O)[C@H]2O)c1` [drawing 172], the “NAD+ level” value was 449 pmol/mg protein.

Turning to `CCCCCCCCCCCCCCOC(=O)c1ccc[n+]([C@@H]2O[C@H](CO)[C@@H](O)[C@H]2O)c1`, the “NAD+ level” value is on record as below 1 pmol/mg protein.

Consider `O=C(OC[P+](c1ccccc1)(c1ccccc1)c1ccccc1)c1cccnc1`, for which the “NAD+ level” value came out at 319 pmol/mg protein.

Consider `CC(=O)OC[C@H]1O[C@@H]([n+]2cccc(C(=O)Sc3ccccc3)c2)[C@H](OC(C)=O)[C@@H]1OC(C)=O`, for which the “NAD+ level” value is listed as below 1 pmol/mg protein.

On to `CC(=O)OC[C@H]1O[C@@H]([n+]2cccc(C(=O)OC(C)(C)C)c2)[C@H](OC(C)=O)[C@@H]1OC(C)=O`, for which the “NAD+ level” value is given as below 1 pmol/mg protein.

As for `CC(C)(C)OC(=O)CCCCCCCCCCCCCCCCC(=O)NCCNC(=O)c1cccnc1`, the “NAD+ level” value stood at 460 pmol/mg protein.

On to `CC(=O)OC[C@H]1O[C@@H]([n+]2cccc(C(=O)NCCC[P+](c3ccccc3)(c3ccccc3)c3ccccc3)c2)[C@H](OC(C)=O)[C@@H]1OC(C)=O`, for which the “NAD+ level” value was 292 pmol/mg protein.

As for `CCOC(=O)c1ccc[n+]([C@@H]2O[C@H](COC(C)=O)[C@@H](OC(C)=O)[C@H]2OC(C)=O)c1`, the “NAD+ level” value is recorded as 674 pmol/mg protein.

`O=C(CCCC[P+](c1ccccc1)(c1ccccc1)c1ccccc1)NCCOC(=O)c1cccnc1`: the “NAD+ level” value is listed as 508 pmol/mg protein.

Take `CC(=O)OC[C@H]1O[C@@H]([n+]2cccc(C(=O)NCCNC(=O)CCCCC[P+](c3ccccc3)(c3ccccc3)c3ccccc3)c2)[C@H](OC(C)=O)[C@@H]1OC(C)=O`: the “NAD+ level” value is reported as 311 pmol/mg protein.

Consider `O=C(OCCOCCCCCC[P+](c1ccccc1)(c1ccccc1)c1ccccc1)c1cccnc1`, for which the “NAD+ level” value is 230 pmol/mg protein.

With `NCCOC(=O)c1cccnc1`, the “NAD+ level” value stood at 562 pmol/mg protein.

As to `O=C(Cc1ccccc1Nc1c(Cl)cccc1Cl)OCCOC(=O)c1cccnc1`, the “NAD+ level” value is below 1 pmol/mg protein.

For the compound `O=C(OCCOCCCCCCCCC[P+](c1ccccc1)(c1ccccc1)c1ccccc1)c1cccnc1`, the “NAD+ level” value was below 1 pmol/mg protein.

On to `O=C(Nc1ccccc1C[P+](c1ccccc1)(c1ccccc1)c1ccccc1)c1cccnc1`, for which the “NAD+ level” value was 666 pmol/mg protein.

Turning to `CC(C)Cc1ccc(C(C)C(=O)OCCOC(=O)c2cccnc2)cc1` (stereo not drawn), the “NAD+ level” value worked out at 539 pmol/mg protein.

With `CC(=O)OC[C@H]1O[C@@H]([n+]2cccc(C(=O)OCc3ccccc3)c2)[C@H](OC(C)=O)[C@@H]1OC(C)=O`, the “NAD+ level” value stood at 426 pmol/mg protein.

Take `CC(=O)OC[C@H]1O[C@@H]([n+]2cccc(C(=O)OC3CC(C)CCC3C(C)C)c2)[C@H](OC(C)=O)[C@@H]1OC(C)=O` (stereo partly drawn): the “NAD+ level” value is listed as 258 pmol/mg protein.

Turning to `O=C(Oc1ccc(/C=C/c2cc(O)cc(O)c2)cc1)c1ccc[n+]([C@@H]2O[C@H](CO)[C@@H](O)[C@H]2O)c1`, the “NAD+ level” value is 94 pmol/mg protein.

As for `O=C(OCCC[P+](c1ccccc1)(c1ccccc1)c1ccccc1)c1cccnc1`, the “NAD+ level” value amounted to 576 pmol/mg protein.

Regarding `CCCC(=O)OC[C@H]1O[C@@H]([n+]2cccc(C(=O)O)c2)[C@H](OC(=O)CCC)[C@@H]1OC(=O)CCC`, the “NAD+ level” value came to 831 pmol/mg protein.

Consider `CC1CCC(C(C)C)C(OC(=O)c2ccc[n+]([C@@H]3O[C@H](COP(=O)([O-])O)[C@@H](O)[C@H]3O)c2)C1` (stereo partly drawn), for which the “NAD+ level” value is on record as 472 pmol/mg protein.

As to `O=C(CCCCC[P+](c1ccccc1)(c1ccccc1)c1ccccc1)NCCOC(=O)c1cccnc1`, the “NAD+ level” value is given as below 1 pmol/mg protein.

With `O=C(NCCNCCC[P+](c1ccccc1)(c1ccccc1)c1ccccc1)c1cccnc1`, the “NAD+ level” value worked out at 391 pmol/mg protein.
